Experimental findings from patent US9999622B2, “Pyrazolothiazole compound and medicine comprising same” (NIPPON SHINYAKU CO., LTD., priority 2014, dated 2018) are described below.

The term IC50 denotes the concentration that gives 50% inhibition.

Holding throughout (format): biochemical
One experiment has as its target T1, JAK1 (Homo sapiens, UniProt P23458).
T1 construct: purchased Carna Biosciences, Inc
The experiment in a line: JAK tyrosine kinase inhibitory activity in the presence of 1 mM ATP (ELISA), JAK1. Here is the method: (§1) 1. Preparation of Test Compound
(§2) The test compound was dissolved in dimethyl sulfoxide (DMSO) to 10 mM and further diluted with DMSO to the concentrations of 1000, 100, 10, 1, 0.1 and 0.01 μM, respectively. For JAK1, these solutions of the test compound at the six concentrations 10 mM, 1000 μM, 100 μM, 10 μM, 1 μM and 0.1 μM were used. For JAK2 and JAK3, these solutions of the test compound at the six concentrations 1000 μM, 100 μM, 10 μM, 1 μM, 0.1 μM and 0.01 μM were used. The test compound solutions were diluted further to 20-fold with an assay buffer to obtain a sample solution. 15 mM Tris-HCl (pH7.5), 0.01 (v/v) % Tween-20 and 1 mM dithiothreitol were used as an assay buffer. DMSO was diluted to 20-fold with the assay buffer and was used as a negative control.
(§3) 2. JAK Tyrosine Kinase Inhibitory Activity in the Presence of 1 mM Atp
(§4) The activity was determined by ELISA method. Each of the sample solutions was added to a streptavidine coated 96-well plate (DELFIA Strip Plate 8×12 well, PerkinElmer) at 10 μL/well (n=2). […] Finally, JAK tyrosine kinase (Carna Biosciences, Inc.), which was previously diluted with the assay buffer to 7.5 nM for JAK1 and 0.75 nM for JAK2 and JAK3, was added to the plate at 20 μL/well, and the plate was incubated at 30° C. for 1 h. The plate was washed four times with buffer (50 mM Tris-HCl (pH 7.5), 150 mM NaCl, 0.02 (v/v) % Tween-20). A blocking buffer (0.1% Bovine Serum Albumin, 50 mM Tris-HCl (pH 7.5), 150 mM NaCl, 0.02 (v/v) % Tween-20) was added to the plate at 150 μL/well and the plate was blocked at 30° C. for 1 h. The blocking buffer was removed, and a horse radish peroxidase-labeled anti-phosphorylated tyrosine antibody (BD Biosciences, Inc.) (diluted to 10000-fold with the blocking buffer) was added to the plate at 100 μL/well, and the plate was incubated at 30° C. for 30 min. The plate was washed with the washing buffer four times, and 3,3′,5,5′-tetramethylbenizidine solution (Nacalai Tesque) was added to the plate at 100 μL/well to develop the color for 10 minutes. To the plate was added 0.1 M sulfuric acid at 100 μL/well to stop the reaction. The absorbance at 450 nm was measured using a microplate reader (BIO-RAD).
(§5) 3. Analysis of the Results
For orientation: In an ELISA, binding on a coated surface is turned into a signal by an enzyme label.

A further experiment has as its target T2, JAK2 (Homo sapiens, UniProt O60674).
T2 construct: purchased Carna Biosciences, Inc
The experiment in a line: JAK tyrosine kinase inhibitory activity in the presence of 1 mM ATP (ELISA), JAK2. The procedure: as §1, §2, §3, §4, §5

Another experiment concerns the target T3, JAK3 (Homo sapiens, UniProt P52333).
T3 construct: purchased Carna Biosciences, Inc
T3 sequence (P52333 1-1124): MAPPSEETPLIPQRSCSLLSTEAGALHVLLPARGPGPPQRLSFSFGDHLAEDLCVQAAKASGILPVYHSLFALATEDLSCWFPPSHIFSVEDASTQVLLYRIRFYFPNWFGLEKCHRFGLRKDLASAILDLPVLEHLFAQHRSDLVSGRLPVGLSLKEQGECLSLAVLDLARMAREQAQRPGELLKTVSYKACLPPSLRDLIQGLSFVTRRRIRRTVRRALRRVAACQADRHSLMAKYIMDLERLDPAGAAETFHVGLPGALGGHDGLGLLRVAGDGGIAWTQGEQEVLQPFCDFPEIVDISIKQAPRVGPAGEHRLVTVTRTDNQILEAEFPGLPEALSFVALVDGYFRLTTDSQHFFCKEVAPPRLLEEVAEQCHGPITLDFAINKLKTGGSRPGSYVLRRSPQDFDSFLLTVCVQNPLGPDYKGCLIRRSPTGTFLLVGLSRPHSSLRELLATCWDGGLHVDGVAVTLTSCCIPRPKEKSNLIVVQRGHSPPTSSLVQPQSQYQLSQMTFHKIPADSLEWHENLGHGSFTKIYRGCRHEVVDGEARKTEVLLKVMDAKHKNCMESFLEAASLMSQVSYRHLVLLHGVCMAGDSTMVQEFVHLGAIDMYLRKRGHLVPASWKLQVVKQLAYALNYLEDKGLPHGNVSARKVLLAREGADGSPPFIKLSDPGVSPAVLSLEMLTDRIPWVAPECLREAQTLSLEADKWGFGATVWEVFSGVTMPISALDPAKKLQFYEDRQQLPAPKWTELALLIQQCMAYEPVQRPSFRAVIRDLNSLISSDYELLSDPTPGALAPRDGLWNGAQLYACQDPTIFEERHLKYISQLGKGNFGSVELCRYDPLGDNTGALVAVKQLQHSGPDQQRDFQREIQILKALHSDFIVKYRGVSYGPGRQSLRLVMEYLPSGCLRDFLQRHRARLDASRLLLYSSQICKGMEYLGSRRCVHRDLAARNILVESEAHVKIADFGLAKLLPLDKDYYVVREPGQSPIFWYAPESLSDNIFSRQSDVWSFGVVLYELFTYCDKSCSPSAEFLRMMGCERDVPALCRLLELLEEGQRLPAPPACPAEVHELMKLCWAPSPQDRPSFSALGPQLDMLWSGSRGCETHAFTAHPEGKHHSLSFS
The experiment in a line: JAK tyrosine kinase inhibitory activity in the presence of 1 mM ATP (ELISA), JAK3. The procedure:
as §1, §2, §3, §4, §5

Bounds are passed on as bounds.

T1 sequence (P23458 whole entry): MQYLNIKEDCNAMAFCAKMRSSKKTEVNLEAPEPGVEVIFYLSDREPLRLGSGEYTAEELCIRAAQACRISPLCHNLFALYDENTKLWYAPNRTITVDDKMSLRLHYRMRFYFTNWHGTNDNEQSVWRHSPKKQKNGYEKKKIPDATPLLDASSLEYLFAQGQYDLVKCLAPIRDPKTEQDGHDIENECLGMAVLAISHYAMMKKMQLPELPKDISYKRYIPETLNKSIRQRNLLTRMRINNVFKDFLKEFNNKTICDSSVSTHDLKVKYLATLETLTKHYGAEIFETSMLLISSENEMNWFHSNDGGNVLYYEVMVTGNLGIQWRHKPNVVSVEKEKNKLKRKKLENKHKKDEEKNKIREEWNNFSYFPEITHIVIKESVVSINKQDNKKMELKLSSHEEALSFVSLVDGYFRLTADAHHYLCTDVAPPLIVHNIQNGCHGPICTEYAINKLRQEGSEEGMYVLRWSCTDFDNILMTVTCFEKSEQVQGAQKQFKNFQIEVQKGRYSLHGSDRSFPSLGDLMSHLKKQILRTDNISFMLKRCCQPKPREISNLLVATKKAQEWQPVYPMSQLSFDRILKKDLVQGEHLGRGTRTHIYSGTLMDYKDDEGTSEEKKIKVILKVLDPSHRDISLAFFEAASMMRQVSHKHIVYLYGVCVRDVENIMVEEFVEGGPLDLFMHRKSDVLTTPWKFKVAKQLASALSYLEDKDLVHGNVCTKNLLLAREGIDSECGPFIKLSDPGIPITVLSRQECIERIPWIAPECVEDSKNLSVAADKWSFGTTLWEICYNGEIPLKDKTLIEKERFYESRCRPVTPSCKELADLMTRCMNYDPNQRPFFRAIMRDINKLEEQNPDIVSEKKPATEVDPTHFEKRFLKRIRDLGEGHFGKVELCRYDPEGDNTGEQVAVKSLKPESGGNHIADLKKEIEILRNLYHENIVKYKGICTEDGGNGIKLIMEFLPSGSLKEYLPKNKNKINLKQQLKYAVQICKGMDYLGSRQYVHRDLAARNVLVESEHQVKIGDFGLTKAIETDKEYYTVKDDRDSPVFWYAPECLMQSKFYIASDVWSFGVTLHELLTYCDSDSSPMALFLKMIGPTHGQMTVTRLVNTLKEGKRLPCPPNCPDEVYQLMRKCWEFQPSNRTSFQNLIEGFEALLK
T2 sequence (O60674 whole entry): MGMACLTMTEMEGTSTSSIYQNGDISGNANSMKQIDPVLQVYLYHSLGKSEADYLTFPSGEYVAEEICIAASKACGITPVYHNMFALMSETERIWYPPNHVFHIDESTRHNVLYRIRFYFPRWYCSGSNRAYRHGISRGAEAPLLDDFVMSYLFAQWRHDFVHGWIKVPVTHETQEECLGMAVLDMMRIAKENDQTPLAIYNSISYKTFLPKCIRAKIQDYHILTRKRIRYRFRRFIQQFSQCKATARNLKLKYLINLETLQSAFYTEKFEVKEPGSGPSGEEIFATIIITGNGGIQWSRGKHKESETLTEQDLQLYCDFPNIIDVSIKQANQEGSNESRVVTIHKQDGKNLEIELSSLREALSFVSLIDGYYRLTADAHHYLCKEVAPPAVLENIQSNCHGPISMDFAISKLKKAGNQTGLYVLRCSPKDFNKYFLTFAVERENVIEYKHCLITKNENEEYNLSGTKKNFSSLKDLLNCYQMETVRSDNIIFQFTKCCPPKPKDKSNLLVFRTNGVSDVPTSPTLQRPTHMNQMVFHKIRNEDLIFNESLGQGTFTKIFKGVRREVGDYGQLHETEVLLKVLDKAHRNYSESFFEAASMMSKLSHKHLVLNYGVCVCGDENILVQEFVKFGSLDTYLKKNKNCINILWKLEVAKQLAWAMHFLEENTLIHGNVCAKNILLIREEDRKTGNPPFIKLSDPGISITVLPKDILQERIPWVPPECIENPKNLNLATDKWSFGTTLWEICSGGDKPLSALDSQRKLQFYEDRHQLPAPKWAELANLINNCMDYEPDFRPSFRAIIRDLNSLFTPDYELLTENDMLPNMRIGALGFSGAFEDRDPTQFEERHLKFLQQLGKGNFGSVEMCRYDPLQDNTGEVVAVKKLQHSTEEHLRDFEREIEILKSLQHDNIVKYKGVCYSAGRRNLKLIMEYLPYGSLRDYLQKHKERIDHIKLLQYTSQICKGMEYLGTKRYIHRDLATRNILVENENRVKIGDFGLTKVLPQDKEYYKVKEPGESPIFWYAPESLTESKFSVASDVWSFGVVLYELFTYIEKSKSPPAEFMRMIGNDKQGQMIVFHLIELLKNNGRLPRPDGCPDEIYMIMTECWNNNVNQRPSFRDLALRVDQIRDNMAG

`N#CCC(=O)N1CC[C@@H](Nc2cc(C(=O)N3CCC(NC(=O)C4CC4)CC3)nc(-c3cnn4ccsc34)n2)C1` [Example 191, N-1-[6-[(3R)-1-(cyanoacetyl)pyrrolidin-3-yl]amino-2-(pyrazolo[5,1-b][1,3]thiazol-7-yl)pyrimidine-4-carbonyl]piperidin-4-ylcyclopropanecarboxamide]: the concentration for half-maximal inhibition (IC50) is 52 nM at JAK1, more than 10000 nM at JAK2 and more than 10000 nM on JAK3.
Take `COC(=O)NC1CCN(C(=O)c2cc(NCC(C)(C)CC3CC3)nc(-c3cnn4ccsc34)n2)CC1` [Example 174, Methyl (1-6-[(3-cyclopropyl-2,2-dimethylpropyl)amino]-2-(pyrazolo[5,1-b][1,3]thiazol-7-yl)pyrimidine-4-carbonylpiperidin-4-yl)carbamate]: the figures for the 50% inhibitory concentration (IC50) at JAK1, on JAK2 and at JAK3 were 300 nM, more than 10000 nM and 5600 nM, respectively.
For the compound `C[C@@H](Nc1cc(C(=O)N2CCC(NC(=O)OCC(F)(F)F)CC2)nc(-c2cnn3ccsc23)n1)C(C)(C)C` [Example 104, 2,2,2-Trifluoroethyl (1-{[6-{[(2R)-3,3-dimethylbutan-2-yl]amino}-2-(pyrazolo[5,1-b][1,3]thiazol-7-yl)pyrimidin-4-yl]carbonyl}piperidin-4-yl)carbamate], the IC50 on JAK1 was found to be 200 nM; at JAK2 it was 3000 nM; at JAK3 it was 3400 nM.
Consider `Cc1c(N[C@@H](C)C2CC2)nc(-c2cnn3ccsc23)nc1C(=O)N1CCC(NC(=O)C(F)F)CC1` [Example 18, N-(1-{[6-{[(1S)-1-Cyclopropylethyl]amino}-5-methyl-2-(pyrazolo[5,1-b][1,3]thiazol-7-yl)pyrimidin-4-yl]carbonyl}piperidin-4-yl)-2,2-difluoroacetamide], for which the half-maximal inhibitory concentration (IC50) at JAK1 is 310 nM; at JAK2 it was 2300 nM; on JAK3, 1700 nM.
Regarding `COC(=O)NC1CCN(C(=O)c2cc(NC3CCN(C(=O)OC(C)(C)C)CC3)nc(-c3cnn4ccsc34)n2)CC1` [Example 142, tert-Butyl 4-{[6-({4-[(methoxycarbonyl)amino]piperidin-1-yl}carbonyl)-2-(pyrazolo[5,1-b][1,3]thiazol-7-yl)pyrimidin-4-yl]amino}piperidine-1-carboxylate], the IC50 at JAK1 was 1200 nM; at JAK2, more than 10000 nM; at JAK3, more than 10000 nM.
On to `COC(=O)NC1CCN(C(=O)c2cc(N[C@H]3CC[C@@H](O)CC3)nc(-c3cnn4ccsc34)n2)CC1` [Example 177, Methyl (1-6-[(cis-4-hydroxycyclohexyl)amino]-2-(pyrazolo[5,1-b][1,3]thiazol-7-yl)pyrimidine-4-carbonylpiperidin-4-yl)carbamate], for which the IC50 at JAK1 was 300 nM; at JAK2, more than 10000 nM; on JAK3, more than 10000 nM.
Turning to `C[C@H](Nc1cc(C(=O)N2CCC(NS(=O)(=O)C3CC3)CC2)nc(-c2cnn3ccsc23)n1)C1CC1` [Example 67, N-(1-{[6-{[(1S)-1-Cyclopropylethyl]amino}-2-(pyrazolo[5,1-b][1,3]thiazol-7-yl)pyrimidin-4-yl]carbonyl}piperidin-4-yl)cyclopropanesulfonamide], the 50% inhibitory concentration (IC50) at JAK1 was determined as 25 nM; at JAK2, 680 nM; at JAK3, 1900 nM.
In the same order, the values of `C[C@@H](Nc1cc(C(=O)N2CCC(NC(=O)C3CC3)CC2)nc(-c2cnn3ccsc23)n1)C1CCCCC1` [Example 169, N-1-[6-[(1R)-1-cyclohexylethyl]amino-2-(pyrazolo[5,1-b][1,3]thiazol-7-yl)pyrimidine-4-carbonyl]piperidin-4-ylcyclopropanecarboxamide] are 160 nM, 6400 nM and 2100 nM.
On to `CCC(CC)COc1cc(C(=O)N2CCC(NC(=O)C3CC3)CC2)nc(-c2cnn3ccsc23)n1` [Example 107, N-(1-{[6-(2-Ethylbutoxy)-2-(pyrazolo[5,1-b][1,3]thiazol-7-yl)pyrimidin-4-yl]carbonyl}piperidin-4-yl)cyclopropanecarboxamide], for which the IC50 on JAK1 is 200 nM; at JAK2 it was 3500 nM; at JAK3, 1600 nM.
On to `C[C@H](Nc1cc(C(=O)N2CCC(NC(=O)c3cccs3)CC2)nc(-c2cnn3ccsc23)n1)C1CC1` [Example 32, N-(1-{[6-{[(1S)-1-Cyclopropylethyl]amino}-2-(pyrazolo[5,1-b][1,3]thiazol-7-yl)pyrimidin-4-yl]carbonyl}piperidin-4-yl)thiophene-2-carboxamide], for which the half-maximal inhibitory concentration (IC50) at JAK1 was 380 nM; at JAK2 it was 1800 nM; on JAK3, more than 10000 nM.
As for `C[C@@H](Nc1cc(C(=O)N2CCC(NC(=O)c3ccccc3)CC2)nc(-c2cnn3ccsc23)n1)C(C)(C)C` [Example 183, N-1-[6-[(2R)-3,3-dimethylbutan-2-yl]amino-2-(pyrazolo[5,1-b][1,3]thiazol-7-yl)pyrimidine-4-carbonyl]piperidin-4-ylbenzamide], the IC50 was 87 nM on JAK1, more than 10000 nM at JAK2 and 1200 nM on JAK3.
For the compound `CCC(=O)NC1CCN(C(=O)c2cc(OCC(CC)CC)nc(-c3cnn4ccsc34)n2)CC1` [Example 114, N-(1-{[6-(2-Ethylbutoxy)-2-(pyrazolo[5,1-b][1,3]thiazol-7-yl)pyrimidin-4-yl]carbonyl}piperidin-4-yl)propanamide], the half-inhibitory concentration (IC50) on JAK1 amounted to 360 nM; at JAK2 it was 1200 nM; on JAK3, 2700 nM.
Turning to `CC(=O)NC1CCN(C(=O)c2nc(-c3cnn4ccsc34)nc(N[C@@H](C)C3CC3)c2C)CC1` [Example 13, N-(1-{[6-{[(1S)-1-Cyclopropylethyl]amino}-5-methyl-2-(pyrazolo[5,1-b][1,3]thiazol-7-yl)pyrimidin-4-yl]carbonyl}piperidin-4-yl)acetamide], the IC50 was determined as 400 nM at JAK1, 2400 nM on JAK2 and 1600 nM at JAK3.
`C[C@@H](Nc1cc(C(=O)N2CCC(NC(=O)c3ccccc3Cl)CC2)nc(-c2cnn3ccsc23)n1)C(C)(C)C` [Example 196, 2-Chloro-N-1-[6-[(2R)-3,3-dimethylbutan-2-yl]amino-2-(pyrazolo[5,1-b][1,3]thiazol-7-yl)pyrimidine-4-carbonyl]piperidin-4-ylbenzamide]: the 50% inhibitory concentration (IC50) on JAK1 turned out to be 110 nM; on JAK2, 9100 nM; on JAK3 it was 7300 nM.
Taken in the same sequence, the figures for `COC(=O)NC1CCN(C(=O)c2cc(NCC3CCN(C(=O)OC)CC3)nc(-c3cnn4ccsc34)n2)CC1` [Example 192, Methyl 4-([6-4-[(methoxycarbonyl)amino]piperidine-1-carbonyl-2-(pyrazolo[5,1-b][1,3]thiazol-7-yl)pyrimidin-4-yl]aminomethyl)piperidine-1-carboxylate] were 690 nM, more than 10000 nM and more than 10000 nM.
